Assay results from the supplement of paper PMC11061612.

How the values were obtained:
[1] = tested on: A2780 (Ovarian Carcinoma); test: Bliss excess, mean over the matrix (fraction); higher = more synergy
Procedure, shortened: (§1)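 After 24 hours at 37°C and 5% CO2 in 1536-well plates, cells in DMEM/F12 or RPMI plus 10% FBS received two-drug dose matrices for 72 hours. Viability came from CellTiter-Glo 2.0 luminescence and was scaled as inhibition, anchored at 0 by vehicle wells and at 1 by blank wells. Combination Emax is taken as the second-highest inhibition in the matrix, and Bliss excess as the observed combination effect less EA + EB − EA·EB, with EA and EB the single-agent effects.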

AU565 (Breast Carcinoma) = test: as above
Procedure, shortened: as §1

[2] = tested on: KYSE-140 (Esophageal Squamous Cell Carcinoma); test: as above
Procedure, shortened: as §1

[3] = tested on: KYSE-220 (Esophageal Squamous Cell Carcinoma); test: as above
Procedure, shortened: as §1

[4] = tested on: LS-411N (Colorectal Carcinoma); test: as above
Procedure, shortened: as §1

[5] = tested on: 22RV1 (Prostate Carcinoma); test: combination Emax (second highest fraction inhibited in the dose matrix, 72 h); higher = more inhibition; extreme values may be limits of the assay
Procedure, shortened: as §1

A101D (Melanoma) = test: as above
Procedure, shortened: as §1

A204 (Rhabdomyosarcoma) = test: as above
Procedure, shortened: as §1

[6] = tested on: CA46 (Burkitt's Lymphoma); test: as above
Procedure, shortened: as §1

[7] = tested on: CGTH-W-1 (Thyroid Gland Carcinoma); test: as above
Procedure, shortened: as §1

COLO-792 (Melanoma) = test: as above
Procedure, shortened: as §1

HCC70 (Breast Carcinoma) = test: as above
Procedure, shortened: as §1

[8] = tested on: HT55 (Colorectal Carcinoma); test: as above
Procedure, shortened: as §1

IM-9 (Non-Cancerous) = test: as above
Procedure, shortened: as §1

[9] = tested on: JVM-2 (B-Cell Non-Hodgkin's Lymphoma); test: as above
Procedure, shortened: as §1

NB13 (Neuroblastoma) = test: as above
Procedure, shortened: as §1

[10] = tested on: NCI-H1651 (Lung Adenocarcinoma); test: as above
Procedure, shortened: as §1

[11] = tested on: NCI-H441 (Lung Adenocarcinoma); test: as above
Procedure, shortened: as §1

[12] = tested on: SW620 (Colorectal Carcinoma); test: as above
Procedure, shortened: as §1

[13] = tested on: huH-1 (Hepatocellular Carcinoma); test: as above
Procedure, shortened: as §1
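Wherever Bliss excess, mean over the matrix is given: after 72 h of two-drug dosing.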

Compound | Bliss excess [1] | Bliss excess (AU565 (Breast Carcinoma)) | Bliss excess [2] | Bliss excess [3] | Bliss excess [4] | combination Emax [5] | combination Emax (A101D (Melanoma)) | combination Emax (A204 (Rhabdomyosarcoma)) | combination Emax [6] | combination Emax [7] | combination Emax (COLO-792 (Melanoma)) | combination Emax (HCC70 (Breast Carcinoma)) | combination Emax [8] | combination Emax (IM-9 (Non-Cancerous)) | combination Emax [9] | combination Emax (NB13 (Neuroblastoma)) | combination Emax [10] | combination Emax [11] | combination Emax [12] | combination Emax [13]
Cc1c2c(nn1C)CSCc1cc(n(C)n1)CSc1cc(c3ccccc3c1)OCCCc1c(C(=O)O)n(C)c3c-2c(Cl)ccc13 [AZD5991] + C=CCn1c(=O)c2cnc(Nc3ccc(N4CCN(C)CC4)cc3)nc2n1-c1cccc(C(C)(C)O)n1 [AZD1775] (first compound max 1 µM, partner max 1 µM) | -0.0313 | 0.0127 | 0.0145 | 0.0181 | 0.0376 | 0.453 | 1 | 0.829 | 0.633 | 0.19 | 0.988 | 0.951 | 0.715 | 0.986 | 0.966 | 0.902 | 0.813 | 0.471 | 0.65 | 0.552
CC(=O)c1c(C)c2cnc(Nc3ccc(N4CCNCC4)cn3)nc2n(C2CCCC2)c1=O [Palbociclib] + Cc1c2c(nn1C)CSCc1cc(n(C)n1)CSc1cc(c3ccccc3c1)OCCCc1c(C(=O)O)n(C)c3c-2c(Cl)ccc13 [AZD5991] (first compound max 10 µM, 7x7, partner max 1 µM) | -0.0344 | -0.0211 | -0.0814 | -0.0645 | -0.0397 | 0.503 | 0.588 | 0.37 | 0.304 | 0.176 | 0.836 | 0.867 | 0.506 | 0.714 | 0.704 | 0.389 | 0.143 | 0.302 | 0.466 | 0.236
CCc1c2c(nc3ccc(O)cc13)-c1cc3c(c(=O)n1C2)COC(=O)[C@]3(O)CC [SN-38] + CN(C)CCCOc1ccc(-c2ccc3ncc4c(c3c2)n(C2CCOCC2)c(=O)n4C)cn1 [AZD0156] (first compound max 0.3 µM, 7x7, partner max 1 µM) | -0.0099 | -0.0621 | 0.0176 | 0.0574 | 0.0079 | 0.683 | 0.674 | 0.59 | 0.758 | 0.771 | 0.361 | 0.2 | 0.449 | 1 | 0.949 | 0.886 | 0.852 | 0.614 | 0.883 | 0.762
C[C@@H]1COCCN1c1cc(C2([S@](C)(=N)=O)CC2)nc(-c2ccnc3[nH]ccc23)n1 [AZD6738] + O=C(c1cc(Cc2n[nH]c(=O)c3ccccc23)ccc1F)N1CCN(C(=O)C2CC2)CC1 [Olaparib] (first compound max 10 µM, 7x7, partner max 10 µM) | 0.006 | 0.005 | -0.0971 | -0.0642 | -0.105 | 0.631 | 0.661 | 0.417 | 0.412 | 0.386 | 0.278 | 0.722 | 0.446 | 0.986 | 0.836 | 0.947 | 0.729 | 0.476 | 0.57 | 0.685
CC1(C)CCC(CN2CCN(c3ccc(C(=O)NS(=O)(=O)c4ccc(NCC5CCOCC5)c([N+](=O)[O-])c4)c(Oc4cnc5[nH]ccc5c4)c3)CC2)=C(c2ccc(Cl)cc2)C1 [Venetoclax] + C1CN(CCC1(C(=O)N[C@@H](CCO)C2=CC=C(C=C2)Cl)N)C3=NC=NC4=C3C=CN4 [Capivasertib] (first compound max 1 µM, 7x7, partner max 3 µM) | -0.0223 | 0.0463 | -0.018 | -0.0023 | -0.0139 | 0.484 | 0.283 | 0.335 | 0.112 | 0.215 | 0.381 | 0.686 | 0.363 | 0.632 | 0.661 | 0.465 | 0.159 | 0.326 | 0.151 | 0.2
Cc1c2c(nn1C)CSCc1cc(n(C)n1)CSc1cc(c3ccccc3c1)OCCCc1c(C(=O)O)n(C)c3c-2c(Cl)ccc13 [AZD5991] + CN(C)CCCOc1ccc(-c2ccc3ncc4c(c3c2)n(C2CCOCC2)c(=O)n4C)cn1 [AZD0156] (first compound max 1 µM, 7x7, partner max 1 µM) | -0.0094 | 0.0204 | -0.0063 | -0.0053 | -0.0058 | 0.476 | 1 | 0.729 | 0.294 | 0.19 | 1 | 0.86 | 0.276 | 0.608 | 0.753 | 0.282 | 0.212 | 0.246 | 0.294 | 0.24
CCN(CCO)CCCOc1ccc2c(Nc3cc(CC(=O)Nc4cccc(F)c4)[nH]n3)ncnc2c1 [AZD2811] + C[C@@H]1COCCN1C2=NC(=NC(=C2)C3(CC3)[S@](=N)(=O)C)C4=C5C=CNC5=NC=C4 [AZD6738] (first compound max 1 µM, 7x7, partner max 10 µM) | -0.0619 | -0.002 | 0.0008 | -0.0541 | -0.0366 | 0.566 | 0.682 | 0.387 | 0.482 | 0.35 | 0.418 | 0.797 | 0.515 | 0.981 | 0.875 | 0.941 | 0.56 | 0.407 | 0.417 | 0.712
CCN(CCO)CCCOc1ccc2c(Nc3cc(CC(=O)Nc4cccc(F)c4)[nH]n3)ncnc2c1 [AZD2811] + C=CCn1c(=O)c2cnc(Nc3ccc(N4CCN(C)CC4)cc3)nc2n1-c1cccc(C(C)(C)O)n1 [AZD1775] (first compound max 1 µM, partner max 1 µM) | 0.088 | 0.0437 | -0.0155 | -0.0225 | -0.0174 | 0.234 | 0.427 | 0.27 | 0.489 | 0.217 | 0.396 | 0.589 | 0.376 | 0.999 | 0.91 | 0.924 | 0.634 | 0.343 | 0.461 | 0.696
CC1(C)CCC(CN2CCN(c3ccc(C(=O)NS(=O)(=O)c4ccc(NCC5CCOCC5)c([N+](=O)[O-])c4)c(Oc4cnc5[nH]ccc5c4)c3)CC2)=C(c2ccc(Cl)cc2)C1 [Venetoclax] + Cn1cnc2c(F)c(Nc3ccc(Br)cc3Cl)c(C(=O)NOCCO)cc21 [Selumetinib] (first compound max 1 µM, 7x7, partner max 3 µM) | 0.0027 | 0.0147 | -0.0042 | 0.0102 | -0.0148 | 0.368 | 0.568 | 0.206 | 0.403 | 0.124 | 0.505 | 0.591 | 0.728 | 0.901 | 0.392 | 0.183 | 0.0964 | 0.255 | 0.575 | 0.114
